From the NIST ThermoML archive (doi:10.1021/acs.jced.5b00986)
± gives the expanded uncertainty stated by the source.

Details: Liquid, Dynamic light scattering

Structure (SMILES)	thermal diffusivity (423.73 K) [m2/s]	thermal diffusivity (448.23 K) [m2/s]	thermal diffusivity (473.1 K) [m2/s]	thermal diffusivity (498.16 K) [m2/s]	thermal diffusivity (523.18 K) [m2/s]	thermal diffusivity (448.09 K) [m2/s]	thermal diffusivity (448.57 K) [m2/s]	thermal diffusivity (473.26 K) [m2/s]
CCCCCCCCCCCC [dodecane]	5.83e-08 ± 3e-09	5.23e-08 ± 2.2e-09	4.87e-08 ± 2e-09	4.58e-08 ± 3.4e-09	4.25e-08 ± 2.6e-09			
CCCCCCCCCCCCCCCCCCCCCCCCCCCCCCCCCCCCCCCC [tetracontane]						6.57e-08 ± 3.4e-09	6.73e-08 ± 4.3e-09	6.86e-08 ± 8e-09
